Consider 16 compounds from patent US20200236940A1, “2-(HET)ARYL-SUBSTITUTED FUSED HETEROCYCLE DERIVATIVES AS PESTICIDES” (Bayer Aktiengesellschaft, priority 2017, published 2020).

Each structure is given as a SMILES string.

What all share (format): in vivo
The subject of assay [1] is Myzus persicae. Briefly: Myzus persicae oral test. The following applies: 120 h, application rate 4 ppm, after 5 days, read-out: efficacy. How it is done:
Myzus persicae—Oral Test Solvent: 100 parts by weight of acetone To produce a suitable active ingredient formulation, 1 part by weight of active ingredient is dissolved with the stated parts by weight of solvent and made up to the desired concentration with water. 50 μl of the active ingredient formulation are transferred into microtitre plates and made up to a final volume of 200 μl with 150 μl of IPL41 insect medium (33%+15% sugar). Subsequently, the plates are sealed with parafilm, which a mixed population of green peach aphids (Myzus persicae) within a second microtitre plate is able to puncture and imbibe the solution. After 5 days, the efficacy in % is determined. 100% means that all the aphids have been killed; 0% means that no aphids have been killed.

Assay [2] concerns Myzus persicae. Briefly: Myzus persicae spray test (MYZUPE), Chinese cabbage leaf discs. The following applies: foliar, 120 h; for pest or weed control at 20 g/ha: application rate 20 g/ha; for pest or weed control at 20 g/ha / pest or weed control at 100 g/ha: after 5 days, read-out: efficacy; for pest or weed control at 100 g/ha: application rate 100 g/ha. On the procedure: Myzus persicae—Spray Test [table] To produce a suitable active ingredient formulation, 1 part by weight of active ingredient is dissolved with the specified parts by weight of solvent and made up to the desired concentration with water containing an emulsifier concentration of 1000 ppm. To produce further test concentrations, the formulation is diluted with emulsifier-containing water. Discs of Chinese cabbage leaves (Brassica pekinensis) infested by all stages of the green peach aphid (Myzus persicae) are sprayed with an active ingredient formulation of the desired concentration. After 5 days, the efficacy in % is determined. 100% means that all the aphids have been killed; 0% means that no aphids have been killed. Myzus persicae—Spray Test (MYZUPE) [table] To produce a suitable active ingredient formulation, 1 part by weight of active ingredient is dissolved with the specified parts by weight of solvent and made up to the desired concentration with water containing an emulsifier concentration of 1000 ppm. To produce further test concentrations, the formulation is diluted with emulsifier-containing water. Discs of Chinese cabbage leaves (Brassica pekinensis) infested by all stages of the green peach aphid (Myzus persicae) are sprayed with an active ingredient formulation of the desired concentration. After the desired period of time, the efficacy in % is determined. 100% means that all the aphids have been killed; 0% means that no aphids have been killed.

The subject of the next assay is Phaedon cochleariae. Briefly: Phaedon cochleariae spray test, Chinese cabbage leaf discs. The following applies: foliar, 168 h, application rate 100 g/ha, after 7 days, larvae, read-out: efficacy. How it is done:
Phaedon cochleariae—Spray Test
To produce a suitable active ingredient formulation, 1 part by weight of active ingredient is dissolved with the specified parts by weight of solvent and made up to the desired concentration with water containing an emulsifier concentration of 1000 ppm. To produce further test concentrations, the formulation is diluted with emulsifier-containing water.
After 7 days, the efficacy in % is determined. 100% means that all the beetle larvae have been killed; 0% means that no beetle larvae have been killed.

Assay [3] relates to Spodoptera frugiperda. Briefly: Spodoptera frugiperda spray test, maize leaf discs. The following applies: for Emax at 100 g/ha: Spodoptera frugiperda, foliar, 168 h, SPODFR, 100 g of ai/ha, 7 dat, read-out: % efficacy; for efficacy: application rate 100 g/ha, after 7 days, caterpillars. How it is done: Spodoptera frugiperda—Spray Test [table] To produce a suitable active ingredient formulation, 1 part by weight of active ingredient is dissolved with the specified parts by weight of solvent and made up to the desired concentration with water containing an emulsifier concentration of 1000 ppm. To produce further test concentrations, the formulation is diluted with emulsifier-containing water. Leaf discs of maize (Zea mays) are sprayed with an active ingredient formulation of the desired concentration and, after drying, populated with caterpillars of the armyworm (Spodoptera frugiperda). After 7 days, the efficacy in % is determined. 100% means that all the caterpillars have been killed; 0% means that no caterpillar has been killed.

The test system of the next assay is Ctenocephalides felis. Briefly: Ctenocephalides felis oral test. To be noted: application rate 100 ppm, after 2 days. How it is done:
Ctenocephalides felis—Oral Test Solvent: dimethyl sulfoxide To produce a suitable active ingredient formulation, 10 mg of active ingredient are mixed with 0.5 ml of dimethyl sulfoxide. Dilution with citrated cattle blood gives the desired concentration. About 20 unfed adult cat fleas (Ctenocephalides felis) are placed into a chamber which is closed at the top and bottom with gauze. A metal cylinder whose bottom end is closed with parafilm is placed onto the chamber. The cylinder contains the blood/active ingredient formulation, which can be imbibed by the fleas through the parafilm membrane. After 2 days, the kill in % is determined. 100% means that all of the fleas have been killed; 0% means that none of the fleas have been killed.

For another assay, the system named is Lucilia cuprina. Briefly: Lucilia cuprina test. To be noted: after 2 days, L1 larvae. On the procedure: Lucilia cuprina Test Solvent: dimethyl sulfoxide To produce a suitable active ingredient formulation, 10 mg of active ingredient are mixed with 0.5 ml of dimethyl sulfoxide, and the concentrate is diluted with water to the desired concentration. About 20 L1 larvae of the Australian sheep blowfly (Lucilia cuprina) are transferred into a test vessel containing minced horsemeat and the active ingredient formulation of the desired concentration. After 2 days, the kill in % is determined. 100% means that all the larvae have been killed; 0% means that no larvae have been killed.

The test system of assay [4] is Myzus persicae. Briefly: Myzus persicae spray test, bell pepper plants. To be noted: application rate 20 ppm, after 6 days. How it is done: Myzus persicae—Spray Test Solvent: 14 parts by weight of dimethylformamide Emulsifier: alkylaryl polyglycol ether To produce a suitable active ingredient formulation, 1 part by weight of active ingredient is dissolved with the specified parts by weight of solvent and made up to the desired concentration with water containing an emulsifier concentration of 1000 ppm. To produce further test concentrations, the formulation is diluted with emulsifier-containing water. If the addition of ammonium salts or/and penetrants is required, these are each added in a concentration of 1000 ppm to the formulation solution. Bell pepper plants (Capsicum annuum) severely infested with the green peach aphid (Myzus persicae) are treated by spraying with the active ingredient formulation in the desired concentration. After 6 days, the kill in % is determined. 100% means that all of the aphids have been killed; 0% means that none of the aphids have been killed.

A further assay deals with Nezara viridula. Briefly: Nezara viridula spray test. The following applies: 96 h, NEZAVI, 500 g of ai/ha, 4 dat, read-out: % efficacy. How it is done:
Nezara viridula—Spray Test [table] To produce a suitable active ingredient formulation, 1 part by weight of active ingredient is dissolved with the specified parts by weight of solvent and made up to the desired concentration with water containing an emulsifier concentration of 1000 ppm. To produce further test concentrations, the formulation is diluted with emulsifier-containing water. If the addition of ammonium salts or/and penetrants is required, these are each added in a concentration of 1000 ppm to the formulation solution. Barley plants (Hordeum vulgare) infected with larvae of the Southern green shield bug (Nezara viridula) are sprayed with an active ingredient formulation of the desired concentration. After the desired period of time, the efficacy in % is determined. 100% means that all of the shield bugs have been killed; 0% means that none of the shield bugs have been killed.

Assay [5] has as its system Spodoptera frugiperda. Briefly: Spodoptera frugiperda spray test (SPODFR S), cotton leaves. To be noted: 168 h, 7 dat, read-out: % efficacy. On the procedure: Spodoptera frugiperda—Spray Test (SPODFR S) Solvent: 14 parts by weight of dimethylformamide Emulsifier: alkylaryl polyglycol ether To produce a suitable active ingredient formulation, 1 part by weight of active ingredient is dissolved with the specified parts by weight of solvent and made up to the desired concentration with water containing an emulsifier concentration of 1000 ppm. To produce further test concentrations, the formulation is diluted with emulsifier-containing water. If the addition of ammonium salts or/and penetrants is required, these are each added in a concentration of 1000 ppm to the formulation solution. Cotton leaves (Gossypium hirsutum) are sprayed with an active ingredient formulation of the desired concentration and populated with caterpillars of the armyworm (Spodoptera frugiperda). After the desired time, the kill in % is determined. 100% means that all caterpillars have been killed; 0% means that none of the caterpillars have been killed.

Turning to `CCS(=O)(=O)c1ccc(NC(=O)NC)nc1-c1nc2cc(C(F)(F)F)nc(C)c2n1C` [Example I-002], the pest or weed control at 4 ppm in the assay with Myzus persicae [1] was 100%. Besides, in the assay on Myzus persicae [2], the pest or weed control at 20 g/ha was found to be 90%.

As for `CCS(=O)(=O)c1ccc(-n2cc(Cl)cn2)nc1-c1nc2cc(C(F)(F)F)nc(C)c2n1C` [Example I-004], in the assay on Myzus persicae [1], the pest or weed control at 4 ppm was found to be 100%. Moreover, the pest or weed control at 100 g/ha with Phaedon cochleariae was 100%.

Regarding `CCS(=O)(=O)c1ccc(-n2cncn2)nc1-c1nc2cc(C(F)(F)F)nc(Cl)c2n1C` [Example I-005], in the assay on Spodoptera frugiperda [3], the Emax at 100 g/ha stood at 100% and the efficacy is 100%. Also, the pest or weed control at 4 ppm in the assay with Myzus persicae [1] was found to be 100%. Besides, in the assay with Myzus persicae [2], the pest or weed control at 20 g/ha was found to be 100% and the pest or weed control at 100 g/ha came to 100%.

On to `CCS(=O)(=O)c1ccc(NC(=O)NC)nc1-c1nc2cc(C(F)(F)F)nc(Cl)c2n1C` [Example I-006], for which the pest or weed control at 4 ppm in the assay on Myzus persicae [1] was found to be 100%. Further, in the assay on Myzus persicae [2], the pest or weed control at 20 g/ha was determined as 90% and the pest or weed control at 100 g/ha amounted to 90%.

With `CCS(=O)(=O)c1ccc(N)nc1-c1nc2cc(C(F)(F)F)nc(C#N)c2n1C` [Example I-007], the pest or weed control at 4 ppm in the assay with Myzus persicae [1] is 100%. Also, the pest or weed control at 20 g/ha with Myzus persicae [2] turned out to be 90%. Further, the pest or weed control at 100 g/ha with Phaedon cochleariae turned out to be 100%.

For the compound `CCS(=O)(=O)c1ccc(-n2cc(C#N)cn2)nc1-c1nc2cc(C(F)(F)F)nc(C)c2n1C` [Example I-008], in the assay on Myzus persicae [1], the pest or weed control at 4 ppm was 100%. Besides, the “efficacy (kill)” value in the assay with Ctenocephalides felis and in the assay on Lucilia cuprina (application rate 100 ppm) was 100% in each case. The pest or weed control at 100 g/ha in the assay on Phaedon cochleariae is 100%.

For `CCS(=O)(=O)c1ccc(-n2cc(Cl)cn2)nc1-c1nc2cc(C(F)(F)F)nc(C#N)c2n1C` [Example I-009, 2-[6-(4-chloro-1H-pyrazol-1-yl)-3-(ethylsulfonyl)pyridin-2-yl]-3-methyl-6-(trifluoromethyl)-3H-imidazo[4,5-c]pyridine-4-carbonitrile], the pest or weed control at 4 ppm with Myzus persicae [1] was 90%. Besides, the “efficacy (kill)” value in the assay on Lucilia cuprina (application rate 20 ppm) and with Lucilia cuprina (application rate 100 ppm) was 100% throughout.

Turning to `CCS(=O)(=O)c1ccc(NC(=O)NC)nc1-c1nc2cc(C(F)(F)F)nc(C#N)c2n1C` [Example I-010], the pest or weed control at 4 ppm with Myzus persicae [1] was determined as 100%. Moreover, the entries for the “efficacy (kill)” value with Ctenocephalides felis and with Myzus persicae [4] were 100% and 99%, respectively.

Consider `CCS(=O)(=O)c1ccc(-n2ncn(-c3ccc(Cl)cc3)c2=O)nc1-c1nc2cc(C(F)(F)F)nc(C#N)c2n1C` [Example I-011, 2-{6-[4-(4-chlorophenyl)-5-oxo-4,5-dihydro-1H-1,2,4-triazol-1-yl]-3-(ethylsulfonyl)pyridin-2-yl}-3-methyl-6-(trifluoromethyl)-3H-imidazo[4,5-c]pyridine-4-carbonitrile], for which the Emax at 500 g/ha in the assay on Nezara viridula came out at 90%. Further, in the assay with Myzus persicae [1], the pest or weed control at 4 ppm turned out to be 100%. In addition, the “efficacy (kill)” value in the assay on Ctenocephalides felis, in the assay with Lucilia cuprina (application rate 20 ppm) and in the assay on Lucilia cuprina (application rate 100 ppm) was 100% in each case. In the assay with Phaedon cochleariae, the pest or weed control at 100 g/ha was 100%.

Regarding `CCS(=O)(=O)c1ccc(-n2cncn2)nc1-c1nc2cc(C(F)(F)F)nc(C#N)c2n1C` [Example I-012], the pest or weed control at 4 ppm in the assay with Myzus persicae [1] amounted to 100%. The “efficacy (kill)” value in the assay with Myzus persicae [4] came to 100%. Moreover, in the assay with Phaedon cochleariae, the pest or weed control at 100 g/ha turned out to be 83%.

With `CCS(=O)(=O)c1ccc(C(=O)NC)nc1-c1nc2cc(C(F)(F)F)nc(C)c2n1C` [Example I-014], the pest or weed control at 4 ppm in the assay on Myzus persicae [1] is 100%. In the assay with Myzus persicae [2], the pest or weed control at 20 g/ha was 90%.

In the case of `CCS(=O)(=O)c1ccc(C(=O)N(C)C)nc1-c1nc2cc(C(F)(F)F)nc(C)c2n1C` [Example I-015], the pest or weed control at 4 ppm in the assay with Myzus persicae [1] was determined as 100%. For the same compound, in the assay with Myzus persicae [2], the pest or weed control at 20 g/ha worked out at 90% and the pest or weed control at 100 g/ha turned out to be 90%.

On to `CCc1nc(C(F)(F)F)cc2nc(-c3nc(-n4ncn(-c5ccc(Cl)cc5)c4=O)ccc3S(=O)(=O)CC)n(C)c12` [Example I-016], for which, in the assay with Nezara viridula, the Emax at 500 g/ha came to 50%. The compound further registered an efficacy in the assay on Spodoptera frugiperda [3] of 100%. Further, in the assay with Myzus persicae [1], the pest or weed control at 4 ppm turned out to be 100%. In the assay with Spodoptera frugiperda [5], the Emax at 4 ppm amounted to 100%. Moreover, the pest or weed control at 100 g/ha in the assay with Phaedon cochleariae is 100%.

Take `C=Cc1nc(C(F)(F)F)cc2nc(-c3nc(-n4ncn(-c5ccc(Cl)cc5)c4=O)ccc3S(=O)(=O)CC)n(C)c12` [Example I-017]: the efficacy in the assay on Spodoptera frugiperda [3] was found to be 100%. In addition, in the assay with Myzus persicae [1], the pest or weed control at 4 ppm was 100%. The pest or weed control at 20 g/ha in the assay with Myzus persicae [2] turned out to be 90%.

As to `CCS(=O)(=O)c1ccc(-n2cncn2)nc1-c1nc2cc(C(F)(F)F)ncc2n1C` [Prior art WO 2016/124563 (Ex. 32), reference compound], the Emax at 100 g/ha in the assay with Spodoptera frugiperda [3] was 50%.

On to `CCS(=O)(=O)c1ccc(-n2ccnn2)nc1-c1nc2cc(C(F)(F)F)ncc2n1C` [Prior art according to WO 2016/124563, reference compound], for which the Emax at 4 g/ha in the assay on Myzus persicae [2] (MYZUPE, 4 g of ai/ha, 5 dat, read-out: % efficacy) was found to be 0%.
